Among the test systems are MALME-3M melanoma; OVCAR-3 ovarian; SF-268 CNS; HCT-116 colon; HCT-15 colon; K-562 leukemia; UACC-62 melanoma; MOLT-4 leukemia; HT29 colon; COLO 205 colon.
Common to all, as to assay: inhibition of tumour cell growth, NCI panel, 48 h

For ten compounds, TGI and GI50 results are on record in PubChem BioAssay (NCI).

Structures are written as SMILES.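 Growth conditions: 96-well plates. Treatment: test compound, 48 hours, 5 concentrations. Analysis: linear interpolation between bracketing concentrations; unreached endpoints set to highest concentration. Here, GI50 denotes the concentration required for 50% inhibition of growth. TGI is the concentration that stops growth completely.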

On to `Nc1nc(Cl)cc(NCCO)n1`, for which the TGI in the experiment on MALME-3M melanoma, in the experiment with OVCAR-3 ovarian, in the experiment on SF-268 CNS, in the experiment with HCT-116 colon, in the experiment on HCT-15 colon and with K-562 leukemia was greater than 100 µM throughout. For the same compound, the TGI with UACC-62 melanoma, in the experiment on MOLT-4 leukemia, in the experiment with HT29 colon and in the experiment with COLO 205 colon was greater than 100 µM in each case.
Consider `Nc1c(C(=O)N/N=C/c2ccc(-c3ccc(Cl)cc3)o2)cnn1-c1ccnc2c(C(F)(F)F)cccc12`, for which the GI50 was greater than 100 µM with MALME-3M melanoma; greater than 100 µM in the experiment on OVCAR-3 ovarian; greater than 100 µM in the experiment with SF-268 CNS; greater than 100 µM with HCT-116 colon; greater than 100 µM in the experiment on HCT-15 colon; 97.7 µM with K-562 leukemia. Besides, the GI50 with UACC-62 melanoma was greater than 100 µM; with MOLT-4 leukemia it was 50.8 µM; in the experiment on HT29 colon, 77.4 µM; in the experiment with COLO 205 colon, greater than 100 µM. Also, the TGI in the experiment on MALME-3M melanoma, with OVCAR-3 ovarian, with SF-268 CNS, in the experiment on HCT-116 colon, in the experiment on HCT-15 colon and with K-562 leukemia was greater than 100 µM in each case. In addition, the TGI in the experiment with UACC-62 melanoma, with MOLT-4 leukemia, with HT29 colon and in the experiment on COLO 205 colon was greater than 100 µM throughout.
Consider `Cc1c(C2Nc3ccccc3C2C)[nH]c2ccccc12` (stereo not drawn), for which the GI50 with MALME-3M melanoma is 10.6 µM; in the experiment with OVCAR-3 ovarian it was 11.6 µM; in the experiment on SF-268 CNS, 12.8 µM; in the experiment on HCT-116 colon, 0.83 µM; with HCT-15 colon, 0.297 µM; with K-562 leukemia, 0.89 µM. The GI50 was 6.24 µM in the experiment with UACC-62 melanoma, 11.2 µM in the experiment with MOLT-4 leukemia, 4.48 µM in the experiment on HT29 colon and 10.5 µM in the experiment on COLO 205 colon. The TGI with MALME-3M melanoma was determined as 24.8 µM; with OVCAR-3 ovarian, 27.2 µM; in the experiment with SF-268 CNS, 45.6 µM; in the experiment with HCT-116 colon it was 23.5 µM; with HCT-15 colon it was 25.9 µM; in the experiment on K-562 leukemia it was 50.4 µM. The TGI in the experiment on UACC-62 melanoma amounted to 21.3 µM; in the experiment on MOLT-4 leukemia, 49.5 µM; in the experiment with HT29 colon, 23.1 µM; in the experiment with COLO 205 colon, 22.5 µM.
Take `O=C(N/N=C\c1cc(Br)ccc1O)c1ccncc1`: the GI50 is 5.76 µM in the experiment on MALME-3M melanoma; 0.435 µM in the experiment with OVCAR-3 ovarian; 1.4 µM with SF-268 CNS; 1.8 µM with HCT-116 colon; 0.563 µM with HCT-15 colon; 3.37 µM in the experiment with K-562 leukemia. Besides, the GI50 is 1.45 µM in the experiment on UACC-62 melanoma, 0.551 µM in the experiment with MOLT-4 leukemia, 5.7 µM with HT29 colon and 1.23 µM in the experiment on COLO 205 colon. Further, the TGI was 78.5 µM with MALME-3M melanoma; 39.8 µM with OVCAR-3 ovarian; greater than 100 µM with SF-268 CNS; greater than 100 µM in the experiment on HCT-116 colon; greater than 100 µM in the experiment on HCT-15 colon; greater than 100 µM with K-562 leukemia. Further, the TGI is 7.4 µM in the experiment on UACC-62 melanoma, 23.5 µM in the experiment with MOLT-4 leukemia, greater than 100 µM with HT29 colon and 16.8 µM in the experiment on COLO 205 colon.
Regarding `CSC1(CC(=O)N(C)C)C(=O)Nc2ccccc21` (stereo not drawn), the TGI in the experiment on MALME-3M melanoma, with OVCAR-3 ovarian, in the experiment with SF-268 CNS, in the experiment with HCT-116 colon, in the experiment with HCT-15 colon and in the experiment with K-562 leukemia was greater than 100 µM each time. The TGI with UACC-62 melanoma, with MOLT-4 leukemia, with HT29 colon and with COLO 205 colon was greater than 100 µM each time.
`OCCCCC#Cc1ccccc1C#Cc1cccc(O)c1`: the GI50 was 18.9 µM in the experiment on MALME-3M melanoma; 20 µM in the experiment on OVCAR-3 ovarian; 18.5 µM in the experiment on SF-268 CNS; 15.5 µM with HCT-116 colon; 13.6 µM in the experiment with HCT-15 colon; 19.2 µM in the experiment with K-562 leukemia. In addition, the GI50 in the experiment on UACC-62 melanoma was 13.3 µM; in the experiment with MOLT-4 leukemia it was 18 µM; with HT29 colon, 17.1 µM; in the experiment on COLO 205 colon, 19.7 µM. Also, the TGI is 40.8 µM with MALME-3M melanoma; 44.1 µM with OVCAR-3 ovarian; 42.6 µM in the experiment on SF-268 CNS; 30 µM with HCT-116 colon; 27 µM in the experiment on HCT-15 colon; 40.4 µM in the experiment on K-562 leukemia. Further, the TGI with UACC-62 melanoma worked out at 26.9 µM; with MOLT-4 leukemia it was 40.7 µM; in the experiment on HT29 colon, 31.8 µM; in the experiment with COLO 205 colon, 35.6 µM.
As for `CCCCCCCCCc1cc(=O)c2c(O)cccc2o1`, the TGI in the experiment with MALME-3M melanoma, in the experiment with OVCAR-3 ovarian, with SF-268 CNS, in the experiment on HCT-116 colon, in the experiment on HCT-15 colon and in the experiment on K-562 leukemia was greater than 100 µM throughout. In addition, the TGI is greater than 100 µM in the experiment on UACC-62 melanoma, 89.5 µM with MOLT-4 leukemia, greater than 10 µM in the experiment with HT29 colon and greater than 100 µM in the experiment on COLO 205 colon.
On to `COc1cc2cn3c4ccc(O)cc4[nH]c(=O)c3c2cc1OC`, for which the GI50 in the experiment with MALME-3M melanoma was 0.0349 µM; in the experiment on OVCAR-3 ovarian it was less than 0.01 µM; in the experiment with SF-268 CNS, less than 0.01 µM; in the experiment on HCT-116 colon, less than 0.01 µM; in the experiment with HCT-15 colon, 0.0207 µM; in the experiment with K-562 leukemia, less than 0.0117 µM. Also, the GI50 in the experiment on UACC-62 melanoma is less than 0.01 µM; in the experiment on MOLT-4 leukemia, 0.0439 µM; in the experiment with HT29 colon it was 0.025 µM; in the experiment with COLO 205 colon, 0.0201 µM. Moreover, the TGI in the experiment with MALME-3M melanoma was 2.06 µM; in the experiment on OVCAR-3 ovarian, 0.214 µM; with SF-268 CNS, 1.55 µM; in the experiment with HCT-116 colon it was 1.66 µM; in the experiment on HCT-15 colon it was 1.35 µM; with K-562 leukemia, 1.68 µM. Besides, the TGI stood at 2.33 µM in the experiment with UACC-62 melanoma, 2.01 µM with MOLT-4 leukemia, 0.469 µM in the experiment on HT29 colon and 0.429 µM in the experiment with COLO 205 colon.
For `O/N=C\c1c(O)ccc2ccccc12`, the TGI with MALME-3M melanoma is 75.5 µM; with OVCAR-3 ovarian, 66.7 µM; in the experiment with SF-268 CNS, greater than 100 µM; with HCT-116 colon it was greater than 100 µM; in the experiment with HCT-15 colon, greater than 100 µM; in the experiment on K-562 leukemia it was greater than 100 µM. Besides, the TGI in the experiment on UACC-62 melanoma, with HT29 colon and in the experiment on COLO 205 colon was greater than 100 µM throughout.
With `N#CC(C(=O)/C(=N/Nc1nc(=S)[nH]n1N)C(C#N)c1ccccc1)c1ccccc1` (stereo not drawn), the TGI in the experiment on MALME-3M melanoma, with OVCAR-3 ovarian, in the experiment on SF-268 CNS, in the experiment with HCT-116 colon, in the experiment on HCT-15 colon and with K-562 leukemia was greater than 100 µM in each case. Further, the TGI in the experiment with UACC-62 melanoma, with HT29 colon and with COLO 205 colon was greater than 100 µM throughout.
